Reference: ChEMBL document CHEMBL5096194, “Development of Alectinib-Based PROTACs as Novel Potent Degraders of Anaplastic Lymphoma Kinase (ALK)” (J Med Chem, 2021)
Activity calls are given as the source filed them. No cut-off for these calls is given here.

Tests used:
[1] = molecular target: Protein cereblon/ALK tyrosine kinase receptor/Echinoderm microtubule-associated protein-like 4 (Homo sapiens, UniProt Q96SW2+Q9HC35+Q9UM73); assay: Protac activity at CRBN/EML4-ALK in human NCI-H3122 cells assessed as induction of EML4-ALK fusion protein degradation incubated for 16 hrs by Western blot analysis; assay type: cell-based
[2] = molecular target: T1, Protein cereblon/ALK tyrosine kinase receptor/Nucleophosmin (Homo sapiens) (UniProt Q9UM73+P06748+Q96SW2); assay: Protac activity at CRBN/NPM-ALK in human KARPAS-299 cells assessed as induction of NPM-ALK fusion protein degradation at 1 uM incubated for 24 hrs by Western blot analysis relative to control; assay type: cell-based
[3] = In vivo induction of degradation of ALK in human KARPAS-299 cells xenografted in NCG mouse assessed as ALK protein expression in tumor at 10 mg/kg, iv administered as single dose measured after 24 hrs by immunoblot analysis relative to control; assay type: functional
[4] = Toxicity in NCG mouse xenografted with human KARPAS-299 cells assessed as liver damage at 10 mg/kg, iv administered once every day for 3 weeks by H and E staining based analysis; assay type: organism-based; conditions: in vivo, 504 h
[5] = molecular target: Protein cereblon/ALK tyrosine kinase receptor/Nucleophosmin (Homo sapiens, UniProt P06748+Q96SW2+Q9UM73); assay: Protac activity at CRBN/NPM-ALK in human KARPAS-299 cells assessed as induction of NPM-ALK fusion protein degradation incubated for 48 hrs by Western blot analysis; assay type: cell-based
[6] = molecular target: Protein cereblon/ALK tyrosine kinase receptor/Echinoderm microtubule-associated protein-like 4 (Homo sapiens) (UniProt Q9UM73+Q9HC35+Q96SW2); assay: Protac activity at CRBN/EML4-ALK in human NCI-H3122 cells assessed as reduction in EML4-ALK fusion protein level at 100 nM measured after 16 hrs by Western blot analysis relative to control; assay type: cell-based; parameters: scale not given: the % may be the effect or the level left
[7] = Volume of distribution in Sprague-Dawley rat at 1 mg/kg, iv administered as single dose measured for 24 hrs by LC-MS/MS analysis; assay type: ADME, organism-based; conditions: in vivo
[8] = Toxicity in NCG mouse xenografted with human KARPAS-299 cells assessed as body weight loss at 10 mg/kg, iv administered once every day for 3 weeks; assay type: organism-based; conditions: in vivo, 504 h
[9] = Cmax in Sprague-Dawley rat at 1 mg/kg, iv administered as single dose measured for 24 hrs by LC-MS/MS analysis; assay type: ADME, organism-based; parameters: time 24 hrs, dose 1 mg/kg, route iv; conditions: in vivo
KARPAS-299 [10] = assay: Antitumor activity against human KARPAS-299 cells xenografted in NCG mouse assessed as reduction in tumor weight at 25 to 50 mg/kg, ip administered once every day for 3 weeks and measured every 3 days; assay type: functional, organism-based; conditions: dose 25-50 mg/kg
BaF3 [11] = assay: Antiproliferative activity against mouse BaF3 cells expressing wild type EML-ALK assessed as cell viability at 1 uM incubated for 72 hrs by Celltitre-Glo assay relative to control; assay type: functional; conditions: read-out: Activity
[12] = Toxicity in NCG mouse xenografted with human KARPAS-299 cells assessed as lung damage at 10 mg/kg, iv administered once every day for 3 weeks by H and E staining based analysis; assay type: organism-based; conditions: in vivo, 504 h
[13] = MRTlast in Sprague-Dawley rat at 1 mg/kg, iv administered as single dose measured for 24 hrs by LC-MS/MS analysis; assay type: ADME, organism-based; conditions: in vivo
[14] = Toxicity in NCG mouse xenografted with human KARPAS-299 cells assessed as kidney damage at 10 mg/kg, iv administered once every day for 3 weeks by H and E staining based analysis; assay type: organism-based; conditions: in vivo, 504 h
[15] = molecular target: ALK tyrosine kinase receptor (Homo sapiens, UniProt Q9UM73); assay: Inhibition of ALK phosphorylation in human KARPAS-299 cells at 100 nM measured after 48 hrs by Western blot analysis; assay type: cell-based
[16] = Half life in Sprague-Dawley rat at 50 mg/kg, ip administered as single dose measured for 24 hrs by LC-MS/MS analysis; assay type: ADME, organism-based; conditions: in vivo
KARPAS-299 [17] = assay: Antitumor activity against human KARPAS-299 cells xenografted in NCG mouse assessed as reduction in tumor volume at 5 to 10 mg/kg, iv administered once every day for 3 weeks and measured every 3 days; assay type: functional, organism-based; conditions: dose 5-10 mg/kg
[18] = molecular target: NPM/ALK (Nucleophosmin/ALK tyrosine kinase receptor) (Homo sapiens) (UniProt Q9UM73+P06748); assay: Induction of NPM-ALK degradation in human KARPAS-299 cells assessed as reduction in NPM-ALK protein level at 1 uM measured after 24 hrs by Western blot analysis; assay type: cell-based
[19] = Tmax in Sprague-Dawley rat at 1 mg/kg, iv administered as single dose measured for 24 hrs by LC-MS/MS analysis; assay type: ADME, organism-based; conditions: in vivo
BaF3 [20] = assay: Antiproliferative activity against mouse BaF3 cells assessed as cell viability at 1 uM incubated for 72 hrs by Celltitre-Glo assay relative to control; assay type: functional; conditions: read-out: Activity
[21] = AUC (0 to t) in Sprague-Dawley rat at 50 mg/kg, ip administered as single dose measured for 24 hrs by LC-MS/MS analysis; assay type: ADME, organism-based; parameters: dose 50 mg/kg, time 24 hrs, route ip; conditions: in vivo
KARPAS-299 [22] = assay: Antitumor activity against human KARPAS-299 cells xenografted in NCG mouse assessed as reduction in tumor volume at 25 to 50 mg/kg, ip administered once every day for 3 weeks and measured every 3 days; assay type: functional, organism-based; conditions: dose 25-50 mg/kg
[23] = molecular target: T1, Protein cereblon/ALK tyrosine kinase receptor/Nucleophosmin (Homo sapiens); assay: Protac activity at CRBN/NPM-ALK in human KARPAS-299 cells assessed as induction of NPM-ALK fusion protein degradation at 0.1 uM incubated for 24 hrs by Western blot analysis relative to control; assay type: cell-based

T1 sequence (P06748 whole entry partner, the tested form may be a part): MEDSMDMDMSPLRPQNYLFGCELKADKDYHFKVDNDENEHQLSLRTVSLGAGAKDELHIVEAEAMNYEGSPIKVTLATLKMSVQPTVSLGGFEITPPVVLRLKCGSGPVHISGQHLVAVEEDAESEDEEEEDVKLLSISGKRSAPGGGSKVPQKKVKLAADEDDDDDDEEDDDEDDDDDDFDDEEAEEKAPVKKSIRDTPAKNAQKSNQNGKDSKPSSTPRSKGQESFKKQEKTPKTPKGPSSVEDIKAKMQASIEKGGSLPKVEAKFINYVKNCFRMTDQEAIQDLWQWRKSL
T1 sequence (Q96SW2 whole entry partner, the tested form may be a part): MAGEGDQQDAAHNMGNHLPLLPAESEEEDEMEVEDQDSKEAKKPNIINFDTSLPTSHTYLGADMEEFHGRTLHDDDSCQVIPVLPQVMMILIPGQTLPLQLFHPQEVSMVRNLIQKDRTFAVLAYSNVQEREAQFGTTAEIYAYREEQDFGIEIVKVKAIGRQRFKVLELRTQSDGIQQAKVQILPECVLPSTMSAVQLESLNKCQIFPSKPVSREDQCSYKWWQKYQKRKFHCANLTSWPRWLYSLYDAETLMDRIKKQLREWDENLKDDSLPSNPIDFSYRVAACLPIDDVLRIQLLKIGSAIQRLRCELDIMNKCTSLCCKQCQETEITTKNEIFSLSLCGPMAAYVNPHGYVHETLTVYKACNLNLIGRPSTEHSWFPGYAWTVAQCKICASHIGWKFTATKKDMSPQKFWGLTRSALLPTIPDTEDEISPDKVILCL
T1 sequence (Q9UM73 19-1620 limits assumed): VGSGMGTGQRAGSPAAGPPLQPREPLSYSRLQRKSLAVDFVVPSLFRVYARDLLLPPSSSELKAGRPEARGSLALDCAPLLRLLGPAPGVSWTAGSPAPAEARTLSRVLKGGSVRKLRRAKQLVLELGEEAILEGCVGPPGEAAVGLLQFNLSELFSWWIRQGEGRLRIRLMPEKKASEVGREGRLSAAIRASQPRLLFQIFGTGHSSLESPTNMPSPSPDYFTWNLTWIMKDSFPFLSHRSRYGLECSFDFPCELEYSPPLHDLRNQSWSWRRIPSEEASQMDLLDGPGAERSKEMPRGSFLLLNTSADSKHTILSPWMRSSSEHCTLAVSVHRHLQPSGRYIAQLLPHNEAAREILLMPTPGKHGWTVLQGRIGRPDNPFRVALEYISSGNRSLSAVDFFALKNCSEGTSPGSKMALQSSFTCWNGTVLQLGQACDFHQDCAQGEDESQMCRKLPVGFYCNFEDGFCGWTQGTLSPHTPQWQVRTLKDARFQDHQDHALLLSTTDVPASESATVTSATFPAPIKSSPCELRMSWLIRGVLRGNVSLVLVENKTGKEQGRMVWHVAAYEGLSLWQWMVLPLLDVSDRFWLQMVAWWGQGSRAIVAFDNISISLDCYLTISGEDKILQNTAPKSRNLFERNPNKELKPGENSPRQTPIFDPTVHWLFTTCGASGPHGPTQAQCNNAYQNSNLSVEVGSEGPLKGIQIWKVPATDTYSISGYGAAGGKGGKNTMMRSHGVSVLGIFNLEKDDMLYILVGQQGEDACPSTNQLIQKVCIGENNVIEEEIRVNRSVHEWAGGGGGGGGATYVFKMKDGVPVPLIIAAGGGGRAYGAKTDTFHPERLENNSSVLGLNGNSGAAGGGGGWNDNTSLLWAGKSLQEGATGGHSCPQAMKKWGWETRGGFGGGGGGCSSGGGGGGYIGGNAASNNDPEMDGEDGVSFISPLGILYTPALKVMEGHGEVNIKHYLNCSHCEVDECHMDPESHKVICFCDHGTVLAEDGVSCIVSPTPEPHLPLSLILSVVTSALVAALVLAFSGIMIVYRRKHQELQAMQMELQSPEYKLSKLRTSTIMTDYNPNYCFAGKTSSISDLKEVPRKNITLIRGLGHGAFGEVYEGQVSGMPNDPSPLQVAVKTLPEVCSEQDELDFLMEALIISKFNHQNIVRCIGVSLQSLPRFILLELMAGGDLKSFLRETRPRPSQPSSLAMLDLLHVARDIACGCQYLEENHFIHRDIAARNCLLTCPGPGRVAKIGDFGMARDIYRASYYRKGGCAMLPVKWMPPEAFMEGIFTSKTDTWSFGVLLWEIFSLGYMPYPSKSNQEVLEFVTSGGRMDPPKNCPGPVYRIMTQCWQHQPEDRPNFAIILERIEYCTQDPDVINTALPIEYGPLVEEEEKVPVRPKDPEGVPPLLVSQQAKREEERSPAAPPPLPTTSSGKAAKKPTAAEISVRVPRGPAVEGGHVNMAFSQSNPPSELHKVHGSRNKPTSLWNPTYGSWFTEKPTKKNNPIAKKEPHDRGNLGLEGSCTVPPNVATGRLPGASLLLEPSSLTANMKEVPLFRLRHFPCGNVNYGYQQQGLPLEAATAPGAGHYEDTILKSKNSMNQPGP
Sequence of Protein cereblon/ALK tyrosine kinase receptor/Nucleophosmin (Q9UM73 whole entry, the tested form may be a part): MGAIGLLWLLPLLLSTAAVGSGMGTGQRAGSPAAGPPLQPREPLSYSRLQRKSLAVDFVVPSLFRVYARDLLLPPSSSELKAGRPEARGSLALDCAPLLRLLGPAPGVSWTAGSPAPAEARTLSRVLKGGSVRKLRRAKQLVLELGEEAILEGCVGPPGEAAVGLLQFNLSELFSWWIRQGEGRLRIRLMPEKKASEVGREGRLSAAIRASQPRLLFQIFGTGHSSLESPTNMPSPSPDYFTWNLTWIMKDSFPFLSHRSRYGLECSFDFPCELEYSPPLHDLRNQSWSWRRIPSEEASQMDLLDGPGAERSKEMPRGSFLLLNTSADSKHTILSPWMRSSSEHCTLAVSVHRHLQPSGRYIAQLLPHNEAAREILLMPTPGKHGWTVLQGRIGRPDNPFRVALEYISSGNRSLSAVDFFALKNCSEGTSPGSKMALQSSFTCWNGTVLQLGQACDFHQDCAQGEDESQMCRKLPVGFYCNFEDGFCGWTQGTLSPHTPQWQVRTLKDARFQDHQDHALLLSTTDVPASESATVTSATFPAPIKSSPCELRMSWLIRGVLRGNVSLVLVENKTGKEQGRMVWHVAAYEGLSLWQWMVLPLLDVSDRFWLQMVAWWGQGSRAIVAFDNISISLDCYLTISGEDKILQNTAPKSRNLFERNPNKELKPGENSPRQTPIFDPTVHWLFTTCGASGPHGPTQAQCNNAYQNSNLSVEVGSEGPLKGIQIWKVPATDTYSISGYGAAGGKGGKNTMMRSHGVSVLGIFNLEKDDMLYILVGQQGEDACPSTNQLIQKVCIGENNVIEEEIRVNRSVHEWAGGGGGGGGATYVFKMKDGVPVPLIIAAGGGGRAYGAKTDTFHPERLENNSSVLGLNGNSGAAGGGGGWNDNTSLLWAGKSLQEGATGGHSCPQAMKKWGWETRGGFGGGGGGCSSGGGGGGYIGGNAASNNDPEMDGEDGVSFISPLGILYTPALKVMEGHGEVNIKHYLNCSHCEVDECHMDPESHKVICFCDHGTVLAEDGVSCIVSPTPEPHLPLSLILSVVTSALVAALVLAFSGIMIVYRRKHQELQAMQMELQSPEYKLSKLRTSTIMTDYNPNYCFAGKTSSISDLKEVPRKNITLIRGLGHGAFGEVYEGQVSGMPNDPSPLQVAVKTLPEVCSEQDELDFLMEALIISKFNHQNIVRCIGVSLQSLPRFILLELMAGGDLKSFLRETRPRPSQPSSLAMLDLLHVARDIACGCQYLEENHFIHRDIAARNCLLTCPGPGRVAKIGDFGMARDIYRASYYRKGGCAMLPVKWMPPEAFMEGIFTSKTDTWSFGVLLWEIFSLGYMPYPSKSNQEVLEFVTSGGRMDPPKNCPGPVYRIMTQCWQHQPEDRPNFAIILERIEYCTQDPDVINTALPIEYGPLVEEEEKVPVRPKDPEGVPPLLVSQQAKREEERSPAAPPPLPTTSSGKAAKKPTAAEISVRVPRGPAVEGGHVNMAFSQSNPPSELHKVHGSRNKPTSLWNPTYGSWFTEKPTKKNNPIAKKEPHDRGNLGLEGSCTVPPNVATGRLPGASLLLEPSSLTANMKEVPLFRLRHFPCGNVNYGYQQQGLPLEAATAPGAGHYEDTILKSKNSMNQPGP
Sequence of Protein cereblon/ALK tyrosine kinase receptor/Nucleophosmin (P06748 whole entry, the tested form may be a part): as the sequence (P06748 whole entry partner, the tested form may be a part) above
Sequence of Protein cereblon/ALK tyrosine kinase receptor/Nucleophosmin (Q96SW2 whole entry, the tested form may be a part): as the sequence (Q96SW2 whole entry partner, the tested form may be a part) above

EC50 [1]: 27.4 nM
Activity [2]: 85%
EC50 [5]: 116 nM
Activity [6]: 22.6%
Vd [7]: 3.89 L/kg
Cmax [9]: 994 ng/mL
MRT last at 24 h [13]: 4.2 min
inhibition [15]: Active
half-life [16]: 1830 min
Activity [18]: Active
Tmax [19]: 1.8 min
AUC(0-t) at 24 h [21]: 546 ng·h/mL
Activity [23]: 8.6%
Compound: CCc1cc2c(cc1N1CCN(C(=O)CNc3cccc4c3C(=O)N(C3CCC(=O)NC3=O)C4=O)CC1)C(C)(C)c1[nH]c3cc(C#N)ccc3c1C2=O (stereo not drawn)
Activity [3]: 18.7%
Activity [4]: Non-Toxic
Activity [8]: Non-Toxic
Activity (KARPAS-299 [10]): Active
viability at 1 µM (BaF3 [11]): 0.1%
Activity [12]: Non-Toxic
Activity [14]: Non-Toxic
Activity (KARPAS-299 [17]): Active
viability at 1 µM (BaF3 [20]): 116%
Activity (KARPAS-299 [22]): Active
